Our source for the IC50 values is patent publication US20240067617A1 (Albireo AB, priority 2022, published 2024).

Each structure is given as a SMILES string. pIC50: −log10 of the molar value.

One experiment addresses T1, hIBAT (Homo sapiens, UniProt Q12908).
T1 construct: expressed in transfected cells; kept under Puromycin selection
T1 sequence (Q12908 1-348): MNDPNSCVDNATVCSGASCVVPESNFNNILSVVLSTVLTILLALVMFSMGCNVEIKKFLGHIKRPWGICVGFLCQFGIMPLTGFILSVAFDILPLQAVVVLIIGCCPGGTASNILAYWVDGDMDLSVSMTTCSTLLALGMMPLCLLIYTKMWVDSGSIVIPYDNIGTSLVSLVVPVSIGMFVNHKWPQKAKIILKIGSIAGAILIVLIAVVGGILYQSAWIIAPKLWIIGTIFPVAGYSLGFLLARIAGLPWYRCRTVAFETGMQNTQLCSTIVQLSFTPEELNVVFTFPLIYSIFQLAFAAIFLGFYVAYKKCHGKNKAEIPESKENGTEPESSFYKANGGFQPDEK
As to the kind of experiment: IBAT (h/m) assay: 3H-taurocholic acid uptake in human IBAT-overexpressing cells. In kind it is cell-based. The following applies: 0.25 μM 3H-taurocholic acid + 5 μM cold taurocholic acid, 20 minutes at 37° C., highest test concentration 10 μM. A digest of the protocol: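 Human or mouse IBAT-overexpressing cells cultured 48 h, then exposed for 20 min at 37 °C to compounds (top 10 μM, 3-fold, 10 points; 0.2% DMSO) with 0.25 μM 3H-taurocholic acid plus 5 μM cold taurocholic acid. Uptake stopped on ice, cells washed with cold 1 mM taurocholic acid, radioactivity counted by scintillation.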

The target of a further experiment is T2, hLBAT (Homo sapiens, UniProt Q14973).
T2 construct: expressed in transfected cells; kept under Geneticin selection
T2 sequence (Q14973 1-349): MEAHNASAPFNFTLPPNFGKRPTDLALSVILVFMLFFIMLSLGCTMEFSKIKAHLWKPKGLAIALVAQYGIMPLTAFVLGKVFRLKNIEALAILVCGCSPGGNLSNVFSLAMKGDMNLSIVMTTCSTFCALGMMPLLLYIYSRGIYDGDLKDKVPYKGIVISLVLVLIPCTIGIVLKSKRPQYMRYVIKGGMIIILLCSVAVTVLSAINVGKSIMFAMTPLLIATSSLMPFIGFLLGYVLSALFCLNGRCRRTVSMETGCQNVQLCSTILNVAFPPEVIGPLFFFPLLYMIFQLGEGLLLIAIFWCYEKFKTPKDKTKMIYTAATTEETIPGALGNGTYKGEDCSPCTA
The experiment in a line: LBAT (h/m) assay: 3H-taurocholic acid uptake in human LBAT-overexpressing cells. In kind it is cell-based. The following applies: 0.3 μM 3H-taurocholic acid + 7.5 μM cold taurocholic acid, 20 minutes at 37° C. The method in brief:
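Human or mouse LBAT-overexpressing cells given 10-point inhibitor series with 0.3 μM 3H-taurocholic acid plus cold taurocholic acid (7.5 μM human, 25 μM mouse), 0.2% DMSO, for 20 min at 37° C. Stopped on ice, washed with 1 mM unlabelled taurocholic acid; uptake measured by scintillation counting.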

A word on the pIC50: it is the negative decadic logarithm of the IC50, by convention in mol/L.

For the compound `CCCCC1(CCCC)CN(c2ccccc2)c2cc(OC)c(CSCC(=O)O)cc2S(=O)(=O)C1` [Example 31, 2-(((3,3-dibutyl-7-methoxy-1,1-dioxido-5-phenyl-2,3,4,5-tetrahydro-1,5-benzothiazepin-8-yl)methyl)thio)acetic acid], the pIC50 on hIBAT was 8.89; at hLBAT, less than 5.48.
Taken in the same sequence, the figures for `CCCCC1(CCCC)CN(c2ccc(F)cc2)c2cc(OC)c(CSCC(=O)O)cc2S(=O)(=O)C1` [Example 32, 2-(((3,3-dibutyl-5-(4-fluorophenyl)-7-methoxy-1,1-dioxido-2,3,4,5-tetrahydro-1,5-benzothiazepin-8-yl)methyl)thio)acetic acid] were 9.22 and less than 5.48.
Taken in the same sequence, the figures for `CCCCC1(CCCC)CN(c2ccccc2)c2cc(OC)c(CSC(C)(C)C(=O)O)cc2S(=O)(=O)C1` [Example 43, 2-(((3,3-dibutyl-7-methoxy-1,1-dioxido-5-phenyl-2,3,4,5-tetrahydro-1,5-benzothiazepin-8-yl)methyl)thio)-2-methylpropanoic acid] were 6.06 and 6.60.
As to `CCCCC1(CC)CN(c2ccccc2)c2cc(N(C)C)c(CSCC(=O)O)cc2S(=O)(=O)N1` (centres unmarked) [Example 46, 2-(((3-butyl-7-(dimethylamino)-3-ethyl-1,1-dioxido-5-phenyl-2,3,4,5-tetrahydro-1,2,5-benzothiadiazepin-8-yl)methyl)thio)acetic acid], the pIC50 was 8.32 on hIBAT and less than 6.00 on hLBAT.
Taken in the same sequence, the figures for `CCCC[C@@H]1CN(c2ccccc2)c2cc(N(C)C)c(CSCC(=O)O)cc2S(=O)(=O)N1` [Example 49, (R)-2-(((3-butyl-7-(dimethylamino)-1,1-dioxido-5-phenyl-2,3,4,5-tetrahydro-1,2,5-benzothiadiazepin-8-yl)methyl)thio)acetic acid] were 5.63 and 6.61.
The like results for `CCCC[C@@H]1CN(c2ccccc2)c2cc(SC)c(CSCC(=O)O)cc2S(=O)(=O)N1` [Example 50, (R)-2-(((3-butyl-7-(methylthio)-1,1-dioxido-5-phenyl-2,3,4,5-tetrahydro-1,2,5-benzothiadiazepin-8-yl)methyl)thio)acetic acid] were, in that order, 6.25 and 7.30.
For `CCCC[C@@H]1CN(c2ccccc2)c2cc(OC)c(CSCC(=O)O)cc2S(=O)(=O)N1` [Example 51, (R)-2-(((3-butyl-7-methoxy-1,1-dioxido-5-phenyl-2,3,4,5-tetrahydro-1,2,5-benzothiadiazepin-8-yl)methyl)thio)acetic acid], the pIC50 was 5.58 at hIBAT and 6.85 at hLBAT.
With `CCCCC1(C)CN(c2ccccc2)c2cc(N(C)C)c(CSCC(=O)O)cc2S(=O)(=O)N1` (centres unmarked) [Example 52, 2-(((3-Butyl-7-(dimethylamino)-3-methyl-1,1-dioxido-5-phenyl-2,3,4,5-tetrahydro-1,2,5-benzothiadiazepin-8-yl)methyl)thio)acetic acid], the pIC50 at hIBAT was 8.13; at hLBAT it was less than 6.00.
As to `CCCCC1(C)CN(c2ccccc2)c2cc(OC)c(CSCC(=O)O)cc2S(=O)(=O)N1` (centres unmarked) [Example 53, 2-(((3-butyl-7-methoxy-3-methyl-1,1-dioxido-5-phenyl-2,3,4,5-tetrahydro-1,2,5-benzothiadiazepin-8-yl)methyl)thio)acetic acid], the values for the pIC50 on hIBAT and at hLBAT were 7.85 and less than 6.00, respectively.
Taken in the same sequence, the figures for `CCCCC1(C)CN(c2ccccc2)c2cc(SC)c(CSCC(=O)O)cc2S(=O)(=O)N1` (centres unmarked) [Example 54, 2-(((3-Butyl-3-methyl-7-(methylthio)-1,1-dioxido-5-phenyl-2,3,4,5-tetrahydro-1,2,5-benzothiadiazepin-8-yl)methyl)thio)acetic acid] were 10.00 and less than 6.00.
